# From patent US20250019370A1, “L-LYSINE SALT OF 4-CHLORO-5-[4-(2,6-DICHLOROPHENYL)SULFONYLPIPERAZIN-1-YL]-1-BENZOFURAN-2-CARBOXYLIC ACID AND VARIOUS FORMS THEREOF” (ENYO PHARMA, priority 2023, published 2025)
# What was measured:
# [1] = Pharmacokinetic study Experiment #1, oral administration in rats; format: in vivo, rat; details: 50 mg EqEYP001/Kg
# Method: In a first study (Experiment #1), EYP001, EYP001 Meglumine salt, and EYP001 L-lysine salt Form I in aqueous formulations (0.5% CMC, 0.25% Tween 80, water) were orally administrated at a dose of 50 mg EqEYP001/Kg in 3 male rats for each compound. Blood samples were taken at 0.25 h, 0.5 h, 1 h, 2 h, 4 h, 6 h, 8 h, 12 h, and 24 h after oral administration.
# [2] = Solubility kinetics in FeSSIF medium; format: physicochemical; details: for Soluble fraction: 37 ° C.; for Soluble fraction / pH: listed as EYP001 L-Lysine salt (Form I); for pH: pH printed with the soluble fraction
# Method: The solubility kinetics of the salt forms as well as the native EYP001 free acid form were determined in FaSSIF and FeSSIF media, and in a pH 4.5 acetate buffer as detailed below: The samples were prepared by adding an excess of each tested bulk (salt or native EYP001) to a given volume of test medium. […] In FaSSIF medium, the soluble concentration was assessed after 24 hours of stirring. […] At each time point, the “supernatant” was isolated and diluted in a solvent mixture allowing its injection into the chromatographic system. The concentration in solution in the test medium was determined by HPLC with external standardization.
# [3] = Pharmacokinetic study Experiment #3, oral administration in rats; format: in vivo, rat; details: 10 mg EqEYP001/Kg
# Method: In a third study (Experiment #3), EYP001 and EYP001 L-lysine salt Form I in aqueous formulations (0.5% CMC, 0.25% Tween 80, water) were orally administrated at a dose of 10 mg EqEYP001/Kg in 6-8 male rats for each compound. Blood samples were taken at 0.25 h, 0.5 h, 1 h, 2 h, 4 h, 6 h, 8 h, 12 h, and 24 h after oral administration.
# [4] = Dynamic Vapor Sorption (DVS) analysis (gas water sorption); format: physicochemical; details: for water uptake (DVS): 25° C./60% RH; for hygroscopicity (DVS): hygroscopic above 2% mass gain at 25° C./60% RH
# Method: The dynamic vapor sorption (DVS) analysis (gas water sorption) was performed on a DVS-Intrinsic incubator (SMS Ltd), equipped with DVS-Intrinsic Control Software 1.0. The sample, placed in an aluminium basket holder, was submitted to a full-cycle analysis (sorption followed by desorption cycle) under the following conditions:
# The sample was first pre-dried under a stream of dry air until a stabilized sample mass was observed. Then, the relative humidity was increased by 5% increments. At each step, the sample mass was allowed to increase until equilibrium is reached (according to a given dm/dt target), and then a new relative humidity rise occurred. Relative humidity was ramped up to 95%. After equilibration at this point, desorption began in a similar stepwise manner, with sample mass decrease again allowed to stabilize after each incremental humidity decrease.
# With both segments of the above-described method, the sample mass recording allowed describing of the whole vapor water sorption/desorption behaviour versus relative humidity.
# [5] = Thermogravimetric analysis (TGA), mass losses upon heating; format: physicochemical; details: listed as EYP001 L-lysine salt (sample A)
# Method: Thermogravimetric analysis was performed on a TA Instruments TGA Hi-Res 2950 apparatus equipped with an evolved gas analysis furnace. A sample was placed in an opened aluminium basket and analysed according to the following conditions: […]
# [6] = Solubility kinetics in FaSSIF medium; format: physicochemical
# Method: The solubility kinetics of the salt forms as well as the native EYP001 free acid form were determined in FaSSIF and FeSSIF media, and in a pH 4.5 acetate buffer as detailed below: The samples were prepared by adding an excess of each tested bulk (salt or native EYP001) to a given volume of test medium. The suspension was stirred by orbital stirring over 1 hour (in both pH 4.5 acetate buffer and FeSSIF medium) or 24 hours ([…] medium) at 37° C., protected from light. In FaSSIF medium, the soluble concentration was assessed after 24 hours of stirring. […] At each time point, the “supernatant” was isolated and diluted in a solvent mixture allowing its injection into the chromatographic system. The concentration in solution in the test medium was determined by HPLC with external standardization.
# [7] = male rats, versus EYP001 free acid
# [8] = listed as EYP001 L-lysine salt (Sample A)
# [9] = listed as EYP001 L-lysine salt (form I)
smiles,measurement,setting,value
"NCCCC[C@H](N)C(=O)O.O=C(O)c1cc2c(Cl)c(N3CCN(S(=O)(=O)c4c(Cl)cccc4Cl)CC3)ccc2o1 [EYP001 L-lysine salt Form I, L-lysine salt of 4-chloro-5-[4-(2,6-dichlorophenyl)sulfonylpiperazin-1-yl]-1-benzofuran-2-carboxylic acid]",Mean AUC0-24,"[1]; male rats, aqueous formulation",60011 ng·h/mL
same,Mean Cmax,"[1]; male rats, aqueous formulation",8827 ng/mL
same,% increase/EYP001 (AUC0-24),[1]; [7],+15%
same,% increase/EYP001 (Cmax),[1]; [7],+26%
same,C max compared to EYP001 free acid and EYP001 Meglumine salt,[1]; rat,higher C max
same,exposure (AUC0-24) compared to EYP001 free acid and EYP001 Meglumine salt,[1]; rat,superior exposure
same,solubility compared to EYP001 free acid and EYP001 Potassium salt,[2]; 37° C.,higher solubility
same,Soluble fraction,[2]; after 0.5 h,0.44 mg/mL of EYP001
same,Soluble fraction,[2]; after 1 h,0.46 mg/mL of EYP001
same,pH,[2]; after 0.5 h,(pH = 5.0)
same,pH,[2]; after 1 h,(pH = 5.0)
same,Mean AUC0-24,"[3]; male rats, aqueous formulation",7311 ng·h/mL
same,Mean Cmax,"[3]; male rats, aqueous formulation",2947 ng/mL
same,% increase/EYP001 (AUC0-24),[3]; [7],+84%
same,% increase/EYP001 (Cmax),[3]; [7],+118%
same,exposure and C max compared to EYP001 free acid,[3]; rat,superiority
same,variability of the C max (CV %) compared to EYP001 free acid,[3]; rat,strongly reduced
same,variability of the exposure (CV %) compared to EYP001 free acid,[3]; rat,strongly reduced
same,mass loss during preliminary drying phase,"[4]; 25° C./0% RH before sorption, listed as EYP001 L-lysine salt (Sample A)",no significant mass loss
same,water uptake (DVS),[4]; [8],0.4%
same,water uptake (DVS),[4]; [9],0.4%
same,water uptake upon sorption (DVS),"[4]; 25° C./95% RH, listed as EYP001 L-lysine salt (Sample A)",0.8%
same,final sample mass after full sorption-desorption cycle versus initial mass,[4]; back to 0% RH,roughly the same as the initial one
same,hygroscopicity (DVS),[4]; [8],non-hygroscopic
same,hygroscopicity (DVS),[4]; [9],non-hygroscopic
same,onset temperature of thermal decomposition (TGA),"[5]; heater ramp 10 ° C./min, nitrogen",254 °C
same,mass loss before the beginning of thermal decomposition (TGA),[5]; upon heating,no mass loss
same,"solubility compared to EYP001 free acid, Piperazine, Morpholine, Imidazole, Benethamine, Zinc and Cyclohexylamine salts",[6]; 37° C.,higher solubility
same,Soluble fraction,"[6]; 37° C., after 24 h",0.31 mg/mL of EYP001
same,pH,"[6]; pH given with the soluble fraction, after 24 h",6.6
